Legend:
Parameters in all cases: purchased Milipore (Millipore)
[1] = biological target: T1, Human adrenergic α2B receptor (Homo sapiens, UniProt P18089); experiment: Radioligand binding, adrenergic α2B (Protocol Group B); details: Protocol Group B; for inhibition at 0.01 µM / Percentage inhibition of ligand binding, Adrenergic α2B (10 nM): 10 nM compound; for inhibition at 0.01 µM: read-out: Percentage inhibition of ligand binding, Adrenergic α2B (10 nM); for Percentage inhibition of ligand binding, Adrenergic α2B (30 nM): 0.03 µM; for Percentage inhibition of ligand binding, Adrenergic α2B (10 nM): 0.01 µM
T1 sequence (P18089 1-450): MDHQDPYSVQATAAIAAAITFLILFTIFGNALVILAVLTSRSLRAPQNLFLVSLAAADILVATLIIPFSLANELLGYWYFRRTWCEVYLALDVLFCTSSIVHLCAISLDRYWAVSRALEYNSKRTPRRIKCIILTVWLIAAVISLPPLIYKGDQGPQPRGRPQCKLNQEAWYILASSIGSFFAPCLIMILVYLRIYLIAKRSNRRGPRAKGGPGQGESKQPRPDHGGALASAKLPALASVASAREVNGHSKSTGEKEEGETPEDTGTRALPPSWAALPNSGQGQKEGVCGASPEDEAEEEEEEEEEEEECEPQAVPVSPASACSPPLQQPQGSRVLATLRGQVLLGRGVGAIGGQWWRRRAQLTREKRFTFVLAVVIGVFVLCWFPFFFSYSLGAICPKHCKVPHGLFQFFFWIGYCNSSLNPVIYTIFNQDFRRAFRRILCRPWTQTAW
Experimental: To evaluate the activity of compounds in radioligand binding assays, Human adrenergic α2B receptor obtained from recombinant cell membrane from Milipore. Binding experiments were carried out in Tris-HCl buffer (50 mM Tris-HCl buffer, pH 7.4, 5 mM Mgcl2, 1 mM Cacl2, 0.2% BSA) as recommended by Milipore. […] Non-specific binding was estimated in the presence of 10 μM Rauwolscine. […] Compounds were screened at various concentrations, using 1% DMSO as vehicle. Biochemical assay results are presented as the percent Inhibition of specific binding in Table B1b, or estimated Ki values in Table B1c.

[2] = biological target: T2, Human adrenergic α2A receptor (Homo sapiens, UniProt P08913); experiment: Radioligand binding, adrenergic α2A (Protocol Group B); details: Protocol Group B; for Percentage inhibition of ligand binding, Adrenergic α2A (0.1 μM): 0.1 μM compound; for Percentage inhibition of ligand binding, Adrenergic α2A (0.3 μM) / inhibition at 0.3 µM: 0.3 μM compound; for inhibition at 0.3 µM: read-out: Percentage inhibition of ligand binding, Adrenergic α2A (0.3 μM)
T2 sequence (P08913 1-465): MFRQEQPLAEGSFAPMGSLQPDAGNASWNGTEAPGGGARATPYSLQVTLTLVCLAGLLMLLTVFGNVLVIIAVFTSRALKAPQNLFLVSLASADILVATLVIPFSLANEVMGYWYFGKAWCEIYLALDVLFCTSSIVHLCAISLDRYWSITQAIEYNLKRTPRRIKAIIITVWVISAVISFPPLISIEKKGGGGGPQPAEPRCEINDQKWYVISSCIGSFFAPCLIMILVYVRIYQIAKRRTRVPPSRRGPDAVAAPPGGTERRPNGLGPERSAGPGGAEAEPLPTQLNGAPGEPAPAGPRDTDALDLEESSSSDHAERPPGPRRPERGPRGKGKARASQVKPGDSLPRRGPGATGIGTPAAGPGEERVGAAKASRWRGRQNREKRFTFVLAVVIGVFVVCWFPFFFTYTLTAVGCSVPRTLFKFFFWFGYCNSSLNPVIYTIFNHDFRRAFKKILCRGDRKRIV
Experimental: To evaluate the activity of compounds in radioligand binding assays, Human adrenergic α2A receptor obtained from recombinant cell membrane from Milipore. Binding experiments were carried out in Tris-HCl buffer (50 mM Tris-HCl buffer, pH 7.4, 5 mM Mgcl2, 1 mM Cacl2, 0.2% BSA) as recommended by Milipore. Compounds were incubated with 2 nM [^3H]MK-912 for 60 min at 25° C. Non-specific binding was estimated in the presence of 10 μM Rauwolscine. Receptor proteins were harvested on 0.33% PEI(poly-ethylenemine) soaked GFC filter mat, the specifically bound [^3H]MK-912 were counted to determine total binding. Compounds were screened at various concentrations, using 1% DMSO as vehicle. percent inhibition of specific binding was determined. Biochemical assay results are presented as the percent Inhibition of specific binding in Table B1b, or estimated Ki values in Table B1c.

[3] = biological target: T3, Human adrenergic α1B receptor (Homo sapiens, UniProt P35368); experiment: Radioligand binding, adrenergic α1B (Protocol Group B); details: Protocol Group B; for Percentage inhibition of ligand binding, Adrenergic α1B (0.1 μM): 0.1 μM compound; for Percentage inhibition of ligand binding, Adrenergic α1B (0.3 μM): 0.3 μM compound
T3 sequence (P35368 1-520): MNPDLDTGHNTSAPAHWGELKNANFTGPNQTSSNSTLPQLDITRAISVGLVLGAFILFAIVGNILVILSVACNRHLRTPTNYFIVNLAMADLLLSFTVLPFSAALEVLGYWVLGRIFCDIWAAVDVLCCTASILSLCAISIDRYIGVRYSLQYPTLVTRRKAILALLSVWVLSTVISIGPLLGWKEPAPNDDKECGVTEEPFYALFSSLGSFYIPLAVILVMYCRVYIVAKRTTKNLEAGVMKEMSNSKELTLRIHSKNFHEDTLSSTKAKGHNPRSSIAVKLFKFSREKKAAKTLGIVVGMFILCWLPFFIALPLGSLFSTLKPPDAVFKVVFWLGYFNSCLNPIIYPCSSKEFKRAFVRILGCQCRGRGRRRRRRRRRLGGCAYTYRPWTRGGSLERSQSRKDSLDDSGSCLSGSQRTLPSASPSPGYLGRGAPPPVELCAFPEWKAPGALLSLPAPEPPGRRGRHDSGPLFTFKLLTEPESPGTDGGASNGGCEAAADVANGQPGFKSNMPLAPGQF
Experimental: To evaluate the activity of compounds in radioligand binding assays, Human adrenergic α1B receptor obtained from recombinant cell membrane from Milipore. Binding experiments were carried out in Tris-HCl buffer (50 mM Tris-HCl buffer, pH 7.4, 10 mM Mgcl2, 1 mM EDTA) as recommended by Milipore. Compounds were incubated with 0.3 nM [^3H]Prazosin for 60 min at 25° C. Non-specific binding was estimated in the presence of 10 μM prazosin. Receptor proteins were harvested on 0.33% PEI(poly-ethylenemine) soaked GFC filter mat, the specifically bound [^3H]Prazosin were counted to determine total binding. Compounds were screened at various concentrations, using 1% DMSO as vehicle. percent inhibition of specific binding was determined. Biochemical assay results are presented as the percent Inhibition of specific binding in Table B1b, or estimated Ki values in Table B1c.

Row | Compound | inhibition at 0.01 µM [1] | Percentage inhibition of ligand binding, Adrenergic α2B (30 nM) ([1]; 30 nM compound) | Percentage inhibition of ligand binding, Adrenergic α2B (0.1 μM) ([1]; 0.1 μM compound) | Percentage inhibition of ligand binding, Adrenergic α2A (0.1 μM) [2] | Percentage inhibition of ligand binding, Adrenergic α2A (0.3 μM) ([2]; 0.3 µM) | Percentage inhibition of ligand binding, Adrenergic α1B (0.1 μM) [3] | Percentage inhibition of ligand binding, Adrenergic α1B (0.3 μM) [3] | Percentage inhibition of ligand binding, Adrenergic α2B (10 nM) [1] | inhibition at 0.3 µM [2] | Percentage inhibition of ligand binding, Adrenergic α2A (0.3 μM) [2] | inhibition at 0.03 µM ([1]; 30 nM compound, read-out: Percentage inhibition of ligand binding, Adrenergic α2B (30 nM)) | inhibition at 0.1 µM ([1]; 0.1 μM compound, read-out: Percentage inhibition of ligand binding, Adrenergic α2B (0.1 μM))
1 | Cc1ccc2c(c1)c1c(n2CC(O)c2ccncc2)CNC2CCCC12 (single isomer, unassigned) [34a] | 21% | −12% | −11% | −9% | −5% | −2% | −10% |  |  |  |  | 
2 | Cc1ccc2c(c1)c1c(n2CC(O)c2ccncc2)CNC2CCCC12 (single isomer, unassigned) [34b] |  | 6% | 32% | −7% | −2% | −16% | 12% | 15% |  |  |  | 
3 | Cc1ccc2c(c1)c1c(n2CC(O)c2ccncc2)CNC2CCCC12 (single isomer, unassigned) [34d] |  | 2% | 25% | −2% | −1% | 6% | 22% | 14% |  |  |  | 

Next, values leading:

Row | inhibition at 0.01 µM [1] | Percentage inhibition of ligand binding, Adrenergic α2B (30 nM) ([1]; 30 nM compound) | Percentage inhibition of ligand binding, Adrenergic α2B (0.1 μM) ([1]; 0.1 μM compound) | Percentage inhibition of ligand binding, Adrenergic α2A (0.1 μM) [2] | Percentage inhibition of ligand binding, Adrenergic α2A (0.3 μM) ([2]; 0.3 µM) | Percentage inhibition of ligand binding, Adrenergic α1B (0.1 μM) [3] | Percentage inhibition of ligand binding, Adrenergic α1B (0.3 μM) [3] | Percentage inhibition of ligand binding, Adrenergic α2B (10 nM) [1] | inhibition at 0.3 µM [2] | Percentage inhibition of ligand binding, Adrenergic α2A (0.3 μM) [2] | inhibition at 0.03 µM ([1]; 30 nM compound, read-out: Percentage inhibition of ligand binding, Adrenergic α2B (30 nM)) | inhibition at 0.1 µM ([1]; 0.1 μM compound, read-out: Percentage inhibition of ligand binding, Adrenergic α2B (0.1 μM)) | Compound
4 |  | −5% | −3% | −16% |  | −2% | 12% | 8% | -5% |  |  |  | Cc1ccc2c(c1)c1c(n2CC(O)c2ccncc2)CN(C)C2CCCC12 (single isomer, unassigned) [36a]
5 |  | −14% | −10% | −7% |  | 0% | 5% | −19% |  | −5% |  |  | Cc1ccc2c(c1)c1c(n2CC(O)c2ccncc2)CN(C)C2CCCC12 (single isomer, unassigned) [36b]
6 | 27% |  |  | 14% |  | 26% | 34% |  | 21% |  | 50% | 69% | Cc1ccc2c(c1)c1c(n2CC(C)(O)c2ccncc2)CC2CCCN2C1 (single isomer, unassigned) [37a]

Source: US20150315188A1, “COMPOUNDS AND METHODS FOR TREATMENT OF HYPERTENSION” (MEDIVATION TECHNOLOGIES, INC., priority 2012, published 2015)
